One assay has as its target T1, PDK1 (Homo sapiens, UniProt O15530).
T1 construct: His6 (N)
T1 sequence (O15530 51-556 limits assumed): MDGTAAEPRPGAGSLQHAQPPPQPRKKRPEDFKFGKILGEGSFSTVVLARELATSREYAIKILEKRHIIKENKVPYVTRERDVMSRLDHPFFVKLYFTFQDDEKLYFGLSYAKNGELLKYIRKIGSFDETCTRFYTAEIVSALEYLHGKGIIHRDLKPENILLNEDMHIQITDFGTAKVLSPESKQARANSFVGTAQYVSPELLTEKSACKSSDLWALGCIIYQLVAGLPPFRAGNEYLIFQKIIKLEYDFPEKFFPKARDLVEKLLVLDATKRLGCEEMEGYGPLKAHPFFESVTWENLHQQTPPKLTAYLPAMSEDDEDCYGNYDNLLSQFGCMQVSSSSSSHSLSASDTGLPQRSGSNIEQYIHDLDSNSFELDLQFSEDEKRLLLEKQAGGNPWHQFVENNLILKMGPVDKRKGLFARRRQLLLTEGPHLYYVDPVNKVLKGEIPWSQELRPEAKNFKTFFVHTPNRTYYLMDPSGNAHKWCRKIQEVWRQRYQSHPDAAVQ
Description: Test for the inhibition of PDK1 (flashplate, 33P-ATP). Type of assay: biochemical. Conditions: enzyme. The procedure, abridged:
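His6-PDK1(1-50) (3.4 nM) incubated with biotinylated peptide substrate (400 nM), 4 μM ATP plus 33P-ATP and compound, 60 min at 30 °C. Incorporated radioactivity counted; blank with 100 nM staurosporine subtracted, activity as % of compound-free control. IC50 from dose series.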

Another assay has as its target T2, IRAK-4 (Homo sapiens, UniProt Q9NWZ3).
T2 construct: His6 (N); Dr.Jaekel
T2 sequence (Q9NWZ3 1-460): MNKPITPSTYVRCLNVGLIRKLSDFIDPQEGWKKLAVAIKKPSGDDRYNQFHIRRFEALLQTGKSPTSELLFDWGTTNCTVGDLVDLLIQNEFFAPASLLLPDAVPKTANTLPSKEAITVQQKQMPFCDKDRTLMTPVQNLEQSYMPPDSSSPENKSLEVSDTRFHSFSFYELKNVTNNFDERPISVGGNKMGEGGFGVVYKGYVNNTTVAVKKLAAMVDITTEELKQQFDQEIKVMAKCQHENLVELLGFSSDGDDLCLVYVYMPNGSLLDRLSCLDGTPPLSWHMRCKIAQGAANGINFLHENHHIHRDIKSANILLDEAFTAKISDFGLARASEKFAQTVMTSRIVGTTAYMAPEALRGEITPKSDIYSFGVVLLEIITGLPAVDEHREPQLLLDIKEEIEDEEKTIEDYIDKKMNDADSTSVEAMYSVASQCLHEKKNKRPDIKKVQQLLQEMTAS
Description: IC50 IRAK-4 (cell). The assay is classed as cell-based.

Turning to `CC1CC(=O)NN=C1c1ccc2nc(-c3cc(-c4cnn(C)c4)cnc3N)[nH]c2c1` (racemic) [Compound A1, 6-{2-[2-amino-5-(1-methyl-1H-pyrazol-4-yl)pyridin-3-yl]-3H-benzimidazol-5-yl}-5-methyl-4,5-dihydro-2H-pyridazin-3-one], at PDK1, the IC50 (in general, the point on the concentration scale where inhibition reaches its midpoint) lay in the range of 0.001 to 0.1 µM.
On the same count and under the same terms, to `COc1ccc2nc(-c3cc(-c4cnn(C)c4)cnc3N)[nH]c2c1` [Compound A43] belongs 0.001 to 0.1 µM; to `Cn1cc(-c2cnc(N)c(-c3nc4cccc(CO)c4[nH]3)c2)cn1` [Compound A52], 0.001 to 0.1 µM.
As to `COc1ccc2nc(-c3cc(-c4cnn(C5CCNCC5)c4)cnc3N)[nH]c2c1` [Compound A92, 3-(6-Methoxy-1H-benzimidazol-2-yl)-5-(1-piperidin-4-yl-1H-pyrazol-4-yl)pyridin-2-ylamine], the IC50 against IRAK-4 is 0.1 to 10 µM; on PDK1 it was 0.001 to 0.1 µM.
Molecule `Cn1cc(-c2cnc(N)c(-c3nc4ccc(C(=O)NCCc5ccc(F)c(F)c5)cc4[nH]3)c2)cn1` [Compound A128, N-[2-(3,4-difluorophenyl)ethyl]-2-[2-amino-5-(1-methyl-1H-pyrazol-4-yl)pyridin-3-yl]-3H-benzimidazole-5-carboxamide] showed an IC50 against PDK1 of 0.001 to 0.1 µM.
`COc1ccc2nc(-c3cc(-c4ccc(C(=O)NC5CCN(C)CC5)s4)cnc3N)[nH]c2c1` [Compound A133, N-(1-Methylpiperidin-4-yl)-5-[6-amino-5-(6-methoxy-1H-benzimidazol-2-yl)pyridin-3-yl]thiophene-2-carboxamide] displayed an IC50 against PDK1 of 0.001 to 0.1 µM.
On the same count and under the same terms, the result for `COc1ccc2nc(-c3cc(-c4ccsc4)cnc3N)[nH]c2c1` [Compound A144, 3-(6-methoxy-1H-benzimidazol-2-yl)-5-thiophen-3-ylpyridin-2-ylamine] reads 0.001 to 0.1 µM.

Values taken from patent US8648201B2, “Aminopyridine derivatives for treating tumors and inflammatory diseases” (MERCK PATENT GmbH, priority 2009, dated 2014).
